# In the METLIN SMRT retention time set (Domingo-Almenara et al. 2019):
# Experiment: gradient 5% acetonitrile 3 min, to 50% in 2 min, to 85% in 15 min, held 3 min, 100 µL/min
# Conditions: column: Zorbax Extend-C18 2.1 x 50 mm; eluents: water / acetonitrile, 0.1% formic acid
# Summary of the method: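 Retention times come from adduct peaks that were picked computationally and then checked by hand. The standards, pure and pooled in mixtures of ~100 molecules, were run on a Zorbax Extend-C18 column (2.1 × 50 mm, 1.8 μm) at 100 μL/min with water and acetonitrile, each with 0.1% formic acid. Detection was by quadrupole time-of-flight mass spectrometry in positive and negative ionization mode, with a dead volume of 40 μL and a dwell volume of 900 μL.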
row,Structure (SMILES),RP-LC retention time
1,COC(=O)c1ccc(Cl)cc1NC(=O)N1CCCn2nc(-c3ccncc3)cc2C1,715 s
2,O=C(NCCn1c(-c2ccc(F)cc2)nc2cccnc21)Nc1ccc2c(c1)OCCO2,682 s
3,N#Cc1ccc(C(=O)N2CCC(CCOCC3CC3)CC2)cc1,862 s
4,CCC(=O)N1CCc2cc(N3CC(C(=O)NC(C)c4ccccc4)CC3=O)ccc21 (centres undefined),750 s
5,O=C(Nc1c(-c2ccc(F)cc2)nc2ccccn12)c1ccc2ccccc2c1,752 s
6,CCOC(=O)c1noc2ncnc(NCC3CCN(Cc4ccccc4F)CC3)c12,661 s
7,COc1cccc(-n2c(N3CCCC(C(=O)NCCC4=CCCCC4)C3)nc3ccsc3c2=O)c1 (centres undefined),1020 s
8,N#Cc1ccc(NS(=O)(=O)c2cccc(-c3nc(-c4ccccc4)no3)c2)cc1,1090 s
9,CCN(C(=O)c1cc2c(=O)n(C)c(=O)n(C)c2s1)c1ccc(OC)cc1,801 s
10,Cn1nnnc1SCC(=O)NCCOc1ccc(-c2ccc(F)cc2)nn1,654 s
11,Cn1c(Cn2c(=O)sc3ccccc32)nnc1SCC(=O)NCC1CCCO1 (centres undefined),608 s
12,O=C(CCc1ccccc1)Nc1nc(-c2cccc3ccccc23)cs1,1170 s
13,CCOCCCNC(=O)c1ccc(-c2ccc(N3CCCC3)nn2)cc1,558 s
14,COc1cc(OC)c(C(=O)CCCN2CCCC2)c(OC)c1,666 s
15,COc1cccc(NC(=O)c2cc(C(C)C)n3nccc3n2)c1,1070 s
16,O=c1c2cc3c(cc2nc(SCc2nc(-c4ccccc4)no2)n1Cc1ccccc1)OCO3,1240 s
17,Cc1cc2nc(NC3=NCN(CC4CCCO4)CN3)nc(C)c2cc1C (centres undefined),683 s
18,CCN1C(=O)COc2ccc(-c3noc(-c4ccc(C(F)(F)F)cc4)n3)cc21,1260 s
19,CC(C)OCCCNC(=O)c1cn(C)cc2c(=O)n(-c3ccccc3)nc1-2,851 s
20,CCCCn1nc(-c2nc(-c3ccc(F)cc3)no2)ccc1=O,1100 s
21,Cc1ccc2[nH]c(C(=O)NCC3CCCO3)cc2c1 (centres undefined),776 s
22,Cc1cccc(-c2noc(Cn3c(=O)n(Cc4cccc(Cl)c4)c(=O)c4sccc43)n2)c1,1230 s
23,CCOC(=O)c1ccc(OCCC2CCN(c3ccc(C)nn3)CC2)cc1,837 s

row,Structure (SMILES),RP-LC retention time
1,COc1ccc(-n2nc(C(=O)Nc3ccc4c(c3)OCCO4)c(=O)cc2OC)cc1,758 s
2,CCCN1C(=O)COc2ccc(-c3noc(CNC(=O)c4ccccc4)n3)cc21,870 s
3,CCc1cccc(NS(=O)(=O)c2cn(CC(C)C)c3ncccc23)c1,1070 s
4,CCOC(=O)C1CCN(C(=O)C2CCCN(c3cnc4nccnc4c3)C2)CC1 (centres undefined),686 s
5,CCCNC(=O)C1CCCN(c2ccc(SCC(=O)Nc3ccc(CC)cc3)nn2)C1 (centres undefined),656 s
6,Cc1c(-c2noc(C(=O)N3CCN(Cc4ccc5c(c4)OCO5)CC3)n2)oc2c(C)cccc12,837 s
7,COc1ccc(NS(=O)(=O)c2cn(C(C)C)c3ncccc23)cc1,840 s
8,O=C(CCc1c(-c2ccc(Cl)cc2)nc2ccccn12)NCC1CCCO1 (centres undefined),602 s
9,CN1c2ccc(F)cc2C(=O)NC12CCN(C(=O)c1ccc(Cl)cc1)CC2,785 s
10,COc1ccc(-c2nn3c(-c4cc(C(C)C)[nH]n4)nnc3s2)c(OC)c1,915 s
11,CCCN(C(=O)Nc1cccc(C)c1C)c1nc(-c2ccc(C3CCCCC3)cc2)cs1,619 s
12,O=C(CNS(=O)(=O)c1ccc(F)cc1)N1CCCC1c1nc(-c2ccc(Cl)cc2)no1 (centres undefined),990 s
13,COC(=O)CN1CN(c2ccc(C)cc2)c2ncccc2S1(=O)=O,894 s
14,O=S(=O)(c1ccc(F)cc1)N1CC(F)(F)C[C@H]1CN1CCc2ccccc2C1,738 s
15,CCc1ccc(NS(=O)(=O)c2ccc(-c3c(C)noc3C)cc2)cc1,996 s
16,CCOC(=O)c1nc(NC2CCCCCC2)c2ccccc2n1,827 s
17,CNC(=O)CCc1nc2ccccc2n(CC(=O)NC(C)CCc2ccccc2)c1=O (centres undefined),728 s
18,CCCN1CCCCc2cc(C(=O)NC(C)CC)sc21 (centres undefined),1100 s
19,CCN1CCN(C(=O)C2CCc3sc(C(=O)N4CCCCC4)cc3C2)CC1 (centres undefined),613 s
20,CCOC(=O)C1CCN(c2ncc(C(=O)Nc3ccccc3)c(N)n2)CC1,705 s
21,Cc1nc(-c2cccnc2)nc2c1CCC(=O)N2Cc1ccccc1,766 s
22,CN(C)C(=O)c1[nH]c2ccccc2c1N1CCCC1=O,604 s
23,CCCCN1CCN(c2ccc(-c3csc(S(=O)(=O)N4CCCCC4)c3)nn2)CC1,686 s

row,Structure (SMILES),RP-LC retention time
1,O=C1NC(C(=O)NC2CCCCC2)Cn2cccc21 (centres undefined),651 s
2,Cc1cc(C)cc(-c2nnc(Cc3nc(-c4cccc(C(F)(F)F)c4)no3)o2)c1,1250 s
3,O=C(Nc1nccs1)c1cc(Cl)sc1Cl,836 s
4,O=C(Nc1nc(-c2ccccc2)cs1)c1c(-c2ccc(Cl)cc2)nc2n1CCS2(=O)=O,1080 s
5,COc1ccc(/C=C\c2onc(C)c2NC(C)=O)cc1S(=O)(=O)N1CCN(c2ccccn2)CC1,612 s
6,Cc1cccc(Nc2ncccc2C(=O)O)c1C,707 s
7,COc1ccc(-c2noc(Cc3nnc(-c4cccc(Cl)c4)o3)n2)cc1OC,973 s
8,Cc1cccc(C)c1NC(=O)CN1CCCC1=O,697 s
9,CC(=O)NCc1ccc(-c2noc(Cc3c(F)cccc3Cl)n2)s1,834 s
10,CCOC(=O)Cc1ccc(NC(=O)N2CCN(c3nc4ccccc4n3C)CC2)cc1,656 s
11,CCOC(=O)c1ccc(NC(=O)c2ccc(S(=O)(=O)N(C)C)cc2)cc1,833 s
12,CC(C)Cn1cc(S(=O)(=O)NCc2cccc(F)c2)c2cccnc21,953 s
13,CCOC(=O)C1CCCN(C(=O)CCC2NC(=O)c3ccccc3NC2=O)C1 (centres undefined),621 s
14,Cc1nnc(C2CCCCCN2C(=O)c2cn[nH]c2)o1 (centres undefined),597 s
15,CSc1cccc(NC(=O)N2CCCC(C)(C(=O)NCc3ccccc3)C2)c1 (centres undefined),951 s
16,O=C(Cn1cnc(-c2cccs2)cc1=O)NCCOc1ccc(-c2ccco2)nn1,583 s
17,CC(C)c1ccc(NC(=O)C2CCN(C(=O)C3Sc4ccccc4NC3=O)CC2)cc1 (centres undefined),872 s
18,COc1ccc(N2CCN(C(=O)CN3CCN(Cc4ccccc4)C3=O)CC2)cc1,714 s
19,[O-][n+]1nc2ccccc2c2ccccc21,812 s
20,CCc1nc2cc(N3CCC(C(=O)Nc4ccc(OC)cc4OC)CC3)cnc2nc1CC,877 s
21,c1cc(-c2noc(-c3cccc4[nH]ccc34)n2)cc(-c2ccn[nH]2)c1,900 s
22,COc1ccccc1Cc1noc(C2CN(C(=O)c3cc(C4CC4)on3)C2)n1,876 s
23,Cc1cccc(N2C(=O)CN(CCc3cccs3)[C@H]3CS(=O)(=O)C[C@H]32)c1,814 s

row,Structure (SMILES),RP-LC retention time
1,Cc1ccc(NC(=O)N2CCc3nc(-c4ccccc4)ncc3C2)c(C)c1,952 s
2,O=C(CCC1CCN(c2cc(NC3CC3)ncn2)CC1)NCc1ccccn1,541 s
3,COc1ccc(C2c3[nH]c4ccccc4c3CCN2C(=O)c2ccncc2)cc1 (centres undefined),877 s
4,c1cncc(-c2nc(-c3ccc(-n4ccnc4)nc3)no2)c1,597 s
5,O=C(NCc1cccs1)c1cccn1Cc1noc(-c2ccc(Cl)cc2)n1,1080 s
6,O=C(c1ccc(Cl)cc1)N1CCC(n2c(-c3ccoc3)nc3cccnc32)C1 (centres undefined),782 s
7,CCN1CCC2(CC1)N=C(c1ccc(Br)cc1)CC(c1cccc(OC)c1O)N2 (centres undefined),618 s
8,CCOc1cc(C(=O)N2CCN(c3cc(-c4cccs4)[nH]n3)CC2)cc(OCC)c1OCC,907 s
9,O=C(Nc1ccc(OCc2nnc(-c3ccccc3)o2)cc1)c1ccc(Cl)nc1,898 s
10,CSc1cccc(NC(=O)Cn2c(=O)n(-c3ccc(C)cc3)c(=O)c3c2cc(C)n3C)c1,910 s
11,Cn1ccc2cc(S(=O)(=O)N3CCCC(C(=O)NC4CCN(Cc5ccccc5)CC4)C3)ccc21 (centres undefined),685 s
12,COc1ccc(-c2nc3ncccn3c2Nc2ccccc2C)cc1,705 s
13,COc1ccc(CNC(=O)Nc2ccc(-c3nc(-c4ccccc4)co3)cc2)cc1,1050 s
14,CCCCc1nnc(NC(=O)C2CCN(C(=O)c3ccc(Cl)cc3)CC2)s1,852 s
15,O=C(NC1CCN(c2cc(-c3cccs3)[nH]n2)C1)c1ccc(Cl)cc1 (centres undefined),776 s
16,NC(=O)COC1CCC12CCN(C(=O)c1ccc3c(c1)OCO3)CC2 (centres undefined),662 s
17,O=C(Nc1cc(-c2ccsc2)no1)C1CCCC1,918 s
18,CCOc1cc(=O)n2c(c1C(=O)Nc1cc(OC)c(OC)c(OC)c1)CCCC2,967 s
19,Cc1cc(C)cc(N2C(=O)CN(CC(C)C)[C@H]3CS(=O)(=O)C[C@H]32)c1,619 s
20,Cc1cc(N2CCN(c3ccccn3)CC2)n2nc(C(F)(F)F)c(-c3ccc(Cl)cc3)c2n1,1010 s
